From US20260174777A1, “METHODS OF TREATMENT” (Arena Pharmaceuticals, Inc., priority 2022, published 2026)
“Also recorded” adds a separate entry of the source. Where two headings read alike, the source gives them in different places.

Legend:
[1] = tested on: drop seizures in patients with Lennox-Gastaut Syndrome; conditions: Phase 3 studies, versus placebo; cited from earlier work
prolactin [2] = experiment: single ascending dose study with healthy subjects: prolactin pharmacodynamics; type: in vivo, human; conditions: single doses
clinical [3] = conditions: human, plasma, oral
[4] = single ascending dose study with healthy subjects: safety and tolerability; type: in vivo, human; conditions: single doses 1 to 24 mg
[5] = single ascending dose study with healthy subjects: pharmacokinetics
[6] = multiple ascending dose study with healthy subjects: safety and tolerability; type: in vivo, human
prolactin [7] = experiment: multiple ascending dose study with healthy subjects: prolactin pharmacodynamics; type: in vivo, human; conditions: multiple doses TID
Procedure: Prolactin serum concentrations were summarized by timepoint, dose and part. Absolute and percent change from baseline in prolactin value was calculated, with predose value on Day 1 considered as the baseline value. Observed prolactin data, absolute and percent change from baseline versus time were plotted.

[8] = for CL/F Mean / Cav Mean / Ctrough Mean: healthy subjects
clinical [9] = conditions: human; for CL renal: plasma and urine; for half-life / Cmax / Tmax / AUC(0-inf) / Vd/F: plasma
[10] = multiple doses TID, healthy subjects
[11] = 3 mg TID, no titration, 14 days
[12] = 6 mg TID, no titration, 14 days
[13] = 12 mg TID, no titration, 14 days
[14] = 18 mg TID, no titration, 14 days

For CCNC(C)Cc1cccc(C(F)(F)F)c1 (stereo not shown) [fenfluramine], the “reduction of the frequency of drop seizures” value [1] is listed as “superior to placebo”.
With C[C@H]1CN2CCNCc3ccc(C(=O)NCC(F)F)c1c32 [Compound 1, (R)-N-(2,2-difluoroethyl)-7-methyl-1,2,3,4,6,7-hexahydro-[1,4]diazepino[6,7,1-hi]indole-8-carboxamide] the “prolactin levels by 24-hour postdose” value (prolactin [2]) was “returned to baseline for only the 6 mg dose level”, the “prolactin mean % CFB at 2 hours” value (prolactin [2]) was “increased in a dose-dependent manner, with a greater than dose proportional increase between 6 mg and 12 mg doses” and the prolactin (prolactin [2]; within 2 h) was “increased within 2 h in a dose- and concentration-dependent manner”. For the same compound, the Tmax (clinical [3]) was 1 to 2 h, the AUC (clinical [3]; 3 mg TID) was 27.1 ng·h/mL and the AUC(0-inf) (clinical [3]; 3 mg TID) was 46.1 ng·h/mL. For the same compound, the AUC(0-t) (clinical [3]; 3 mg TID) was 38.6 ng·h/mL, the Cmax (clinical [3]; 3 mg TID) was 6.61 ng/mL and the Tmax (clinical [3]; 3 mg TID) was 1.01 h. The half-life (clinical [3]; 3 mg TID) was 5.56 h, the AUC (clinical [3]; 6 mg TID) was 99.8 ng·h/mL and the AUC(0-inf) (clinical [3]; 6 mg TID) was 152 ng·h/mL. For the same compound, the AUC(0-t) (clinical [3]; 6 mg TID) was 150 ng·h/mL, the Cmax (clinical [3]; 6 mg TID) was 20.7 ng/mL and the Tmax (clinical [3]; 6 mg TID) was 1.78 h. It also gave a half-life (clinical [3]; 6 mg TID) of 4.81 h, an AUC (clinical [3]; 12 mg TID) of 213 ng·h/mL and an AUC(0-inf) (clinical [3]; 12 mg TID) of 330 ng·h/mL. For the same compound, the AUC(0-t) (clinical [3]; 12 mg TID) was 327 ng·h/mL, the Cmax (clinical [3]; 12 mg TID) was 44.9 ng/mL and the Tmax (clinical [3]; 12 mg TID) was 1.27 h. For the same compound, the half-life (clinical [3]; 12 mg TID) was 5.96 h, the AUC (clinical [3]; 18 mg TID) was 480 ng·h/mL and the AUC(0-inf) (clinical [3]; 18 mg TID) was 775 ng·h/mL. For the same compound, the AUC(0-t) (clinical [3]; 18 mg TID) was 773 ng·h/mL, the Cmax (clinical [3]; 18 mg TID) was 98.6 ng/mL and the Tmax (clinical [3]; 18 mg TID) was 2 h. For the same compound, the half-life (clinical [3]; 18 mg TID) was 5.64 h, the AUC (clinical [3]; 24 mg TID) was 480 ng·h/mL and the AUC(0-inf) (clinical [3]; 24 mg TID) was 741 ng·h/mL. It also gave an AUC(0-t) (clinical [3]; 24 mg TID) of 737 ng·h/mL, a Cmax (clinical [3]; 24 mg TID) of 107 ng/mL and a Tmax (clinical [3]; 24 mg TID) of 1.04 h. The half-life (clinical [3]; 24 mg TID) was 6.5 h, the “most common treatment emergent adverse events” value [4] was “headache, postural dizziness, and nausea, which were mild to moderate in severity” and the “dose proportionality of peak and total exposure” value ([5]; single doses 1 to 24 mg) was “slightly greater than dose proportional especially at higher doses”. The “absorption into the systemic circulation” value ([5]; single oral dose, powder in capsule formulation) was “rapidly absorbed”, the serious adverse event ([6]; after stopping treatment with 24 mg TID) was “One” and the “subjects discontinued due to adverse events” value ([6]; forty-three subjects enrolled) was “Three”. The “most common TEAEs” value [6, 10] was “headache, somnolence, dizziness, dizziness postural, micturition urgency & orthostatic hypotension”, the “severity of majority of treatment emergent adverse events (TEAEs)” value [6, 10] was “mild to moderate” and the “severe TEAEs” value ([6]; occurring in 3 subjects, all after cessation of dosing) was “Five”. For the same compound, the “mean percent change from baseline prolactin level at 2 hours” value (prolactin [7]) was “increased with increasing doses from 3 mg to 12 mg and plateaued thereafter”, the prolactin (prolactin [7]) was “increased in a dose- and concentration-dependent manner, with greater increase seen after first dose” and the “CL/F Mean” value [8, 11] was 125 L/h. For the same compound, the “Cav Mean” value [8, 11] was 3.39 ng/mL, the “Ctrough Mean” value [8, 11] was 1.94 ng/mL and the “CL/F Mean” value [8, 12] was 66.6 L/h. For the same compound, the “Cav Mean” value [8, 12] was 12.5 ng/mL, the “Ctrough Mean” value [8, 12] was 7.02 ng/mL and the “CL/F Mean” value [8, 13] was 63.1 L/h. The “Cav Mean” value [8, 13] was 26.6 ng/mL, the “Ctrough Mean” value [8, 13] was 15.8 ng/mL and the “CL/F Mean” value [8, 14] was 45.9 L/h. For the same compound, the “Cav Mean” value [8, 14] was 60.0 ng/mL, the “Ctrough Mean” value [8, 14] was 37.7 ng/mL and the “CL/F Mean” value ([8]; 24 mg TID, 3-day titration) was 62.9 L/h. For the same compound, the “Cav Mean” value ([8]; 24 mg TID, 3-day titration) was 60.1 ng/mL, the “Ctrough Mean” value ([8]; 24 mg TID, 3-day titration) was 34.0 ng/mL and the “dose eliminated by the renal route in 48 hours” value ([8]; 12/24 mg TID titration regimen) was 12.3%. For the same compound, the “accumulation upon multiple dosing” value ([8]; TID regimen, listed as Study Drug) was “Significant accumulation; also recorded: dose dependent accumulation”, the “steady-state achieved by” value ([8]; doses up to 18 mg TID, in most cases) was at most 10 days and the “absorption into systemic circulation” value ([8]; first dose and multiple oral doses, powder-in-capsule formulation) was “rapidly absorbed”. For the same compound, the “dosing time after which most subjects were at steady state” value ([8]; non-titration part) was 10 days, the CL renal (clinical [9]; oral, 1 mg) was 50 mL/min and the CL renal (clinical [9]; oral, 3 mg) was 60.3 mL/min. For the same compound, the CL renal (clinical [9]; oral, 6 mg) was 57 mL/min, the CL renal (clinical [9]; oral, 12 mg) was 70.8 mL/min and the CL renal (clinical [9]; oral, 24 mg) was 62.5 mL/min. The half-life (clinical [9]; oral) was 5 to 7 h, the Cmax (clinical [9]; oral, 1 mg) was 1.08 ng/mL and the Tmax (clinical [9]; oral, 1 mg) was 1.54 h. The AUC(0-inf) (clinical [9]; oral, 3 mg) was 40.9 ng·h/mL, the Cmax (clinical [9]; oral, 3 mg) was 6.36 ng/mL and the Tmax (clinical [9]; oral, 3 mg) was 1.02 h. It also gave a Vd/F (clinical [9]; oral, 3 mg) of 608 L, a half-life (clinical [9]; oral, 3 mg) of 4.94 h and an AUC(0-inf) (clinical [9]; oral, 6 mg) of 58.7 ng·h/mL. For the same compound, the Cmax (clinical [9]; oral, 6 mg) was 9.52 ng/mL, the Tmax (clinical [9]; oral, 6 mg) was 1.5 h and the Vd/F (clinical [9]; oral, 6 mg) was 1230 L. The half-life (clinical [9]; oral, 6 mg) was 6.66 h, the AUC(0-inf) (clinical [9]; oral, 12 mg) was 101 ng·h/mL and the Cmax (clinical [9]; oral, 12 mg) was 17 ng/mL. The Tmax (clinical [9]; oral, 12 mg) was 1.25 h, the Vd/F (clinical [9]; oral, 12 mg) was 929 L and the half-life (clinical [9]; oral, 12 mg) was 4.67 h. For the same compound, the AUC(0-inf) (clinical [9]; oral, 24 mg) was 288 ng·h/mL, the Cmax (clinical [9]; oral, 24 mg) was 59.3 ng/mL and the Tmax (clinical [9]; oral, 24 mg) was 1.07 h. It also gave a Vd/F (clinical [9]; oral, 24 mg) of 697 L, a half-life (clinical [9]; oral, 24 mg) of 5.09 h and a Tmax (clinical [9]; po) of 1 to 1.5 h.
